# Data reported in paper PMC6409032, “Antileishmanial Evaluation of the Leaf Latex of Aloe macrocarpa, Aloin A/B, and Its Semisynthetic Derivatives against Two Leishmania Species” (Evidence-based Complementary and Alternative Medicine : eCAM, 2019).
# Read-outs that look alike come from different tables or passages of the source.
# What was measured:
# [1] = system: Leishmania aethiopica promastigotes; assay: In vitro antipromastigote assay (resazurin fluorescence); type: cell-based
# Procedure: (§1) In vitro antileishmanial activity tests were carried out against the promastigote stage and axenically cultured amastigotes of L. aethiopica and L. donovani. The two isolates were grown in tissue culture flasks containing RPMI 1640 medium supplemented with 10% heat-inactivated fetal calf serum, 100 IU penicillin/mL, and 100 μg/mL streptomycin solution at 22°C for L. aethiopica and 24°C for L. donovani. Axenically cultured amastigotes were obtained from the late stationary phase promastigotes (3 × 10^6 cells/ml). The cells were centrifuged and then resuspended in medium 199 with Hank's salts supplemented with 20% FBS, 2 mM L-glutamine, 50 IU/mL penicillin, and 50 μg/mL streptomycin. The pH was adjusted to 5.5 using 1 N HCl. Following incubation of cells at 31°C for L. aethiopica and 37°C for L. donovani at 5% CO2, amastigote-like rounded morphology together with loss of flagella and cell clumping started appearing within 24 h. The parasites were kept for a week as some motile parasites with intermediate forms and short flagella were detected. The human monocytic leukemia cell line THP-1 cells were incubated in RPMI 1640 medium plus 10% hi-FCS and 20 ng/mL phorbol 12-myristate 13-acetate (PMA; Sigma) at 37°C and 5% CO2 for 72 h. A cell-free medium was used to grow parasites in vitro and to set up the test system for determination of the IC50 values of the test substances.
# (§2) To a separate 96-well microtiter plate containing 100 μL of complete culture medium, each of the test substances was added to triplicate wells to achieve a final concentration of 100 μg/mL. Each one hundred microliter suspension of the parasites (3.5 × 10^6 promastigotes or axenically cultured amastigotes /mL of L. aethiopica or L. donovani) obtained from the previous culture was then added to each well, and contents of each plates were maintained for 72 h, at room temperature for promastigotes stages of both strains, at 31°C and 37°C for axenically cultured amastigotes of L. aethiopica and L. donovani, respectively. After 68 h of incubation, 20 μL (10% of the total volume of each well) resazurin (0.125 mg/mL) was added, covered with aluminum foil, and left at temperature mentioned above. Antileishmanial effect of the test substances was studied on the basis of fluorescence characteristic of resazurin added to drug-treated cultures.
# (§3) Antipromastigote effect was evaluated against clinical isolates of L. aethiopica and L. donovani strains, as per the method described by Abeje et al..
# (§4) Antileishmanial activity (IC50) was expressed as mean ± SD of triplicate measurements. IC50 values were evaluated from sigmoidal dose-response curves of percent inhibition using the computer software GraphPad Prism 8 (GraphPad Software, Inc., CA, USA), and values expressed as mean ± SD of triplicate experiments.
# [2] = system: Leishmania donovani promastigotes; assay: as above; type: cell-based; details: L. donovani promastigotes, 72 h
# Procedure: as §1, §2, §3, §4
# [3] = system: axenically cultured amastigotes of Leishmania aethiopica; assay: In vitro assay on axenically cultured amastigotes (resazurin fluorescence); type: cell-based; details: for Selectivity index: LC50 on THP-1 cells / IC50 on L. aethiopica amastigotes; for IC50: Leishmania aethiopica, L. aethiopica axenic amastigotes, 72 h
# Procedure: as §1, with “The human monocytic leukemia cell line THP-1 cells were incubated in RPMI 1640 medium plus 10% hi-FCS and 20 ng/mL phorbol 12-myristate 13-acetate (PMA; Sigma) at 37°C and 5% CO2 for 72 h.” left out, “substances. […] Each one hundred microliter suspension of the parasites (3.5 × 10^6 promastigotes or axenically cultured amastigotes /mL of L. aethiopica or L. donovani) obtained from the previous culture was then added to each well, and contents of each plates were maintained for 72 h, at room temperature for promastigotes stages of both strains, at 31°C and 37°C for axenically cultured amastigotes of L. aethiopica and L. donovani, respectively. After 68 h of incubation, 20 μL (10% of the total volume of each well) resazurin (0.125 mg/mL) was added, covered with aluminum foil, and left at temperature mentioned above. […] Antileishmanial activity (IC50) was expressed as mean ± SD of triplicate measurements. IC50 values were evaluated from sigmoidal dose-response curves of percent inhibition using the computer software GraphPad Prism 8 (GraphPad Software, Inc., CA, USA), and values expressed as mean ± SD of triplicate experiments.” for “substances.”
# [4] = system: axenically cultured amastigotes of Leishmania donovani; assay: as above; type: cell-based; details: for Selectivity index: LC50 on THP-1 cells / IC50 on L. donovani amastigotes; for IC50: Leishmania donovani, L. donovani axenic amastigotes, 72 h
# Procedure: as §1, with “The human monocytic leukemia cell line THP-1 cells were incubated in RPMI 1640 medium plus 10% hi-FCS and 20 ng/mL phorbol 12-myristate 13-acetate (PMA; Sigma) at 37°C and 5% CO2 for 72 h.” left out, “substances. […] Each one hundred microliter suspension of the parasites (3.5 × 10^6 promastigotes or axenically cultured amastigotes /mL of L. aethiopica or L. donovani) obtained from the previous culture was then added to each well, and contents of each plates were maintained for 72 h, at room temperature for promastigotes stages of both strains, at 31°C and 37°C for axenically cultured amastigotes of L. aethiopica and L. donovani, respectively. After 68 h of incubation, 20 μL (10% of the total volume of each well) resazurin (0.125 mg/mL) was added, covered with aluminum foil, and left at temperature mentioned above. […] Antileishmanial activity (IC50) was expressed as mean ± SD of triplicate measurements. IC50 values were evaluated from sigmoidal dose-response curves of percent inhibition using the computer software GraphPad Prism 8 (GraphPad Software, Inc., CA, USA), and values expressed as mean ± SD of triplicate experiments.” for “substances.”
# [5] = Cytotoxicity study in THP-1 monocytes (Alamar Blue); type: cell-based; details: human
# Procedure: In vitro antileishmanial activity tests were carried out against the promastigote stage and axenically cultured amastigotes of L. aethiopica and L. donovani. […] Axenically cultured amastigotes were obtained from the late stationary phase promastigotes (3 × 10^6 cells/ml). […] The pH was adjusted to 5.5 using 1 N HCl. Following incubation of cells at 31°C for L. aethiopica and 37°C for L. donovani at 5% CO2, amastigote-like rounded morphology together with loss of flagella and cell clumping started appearing within 24 h. The parasites were kept for a week as some motile parasites with intermediate forms and short flagella were detected. […] A cell-free medium was used to grow parasites in vitro and to set up the test system for determination of the IC50 values of the test substances.
# THP-1 monocytes were plated onto 96-well plates at a density of 4 × 10^4 cells per well (in 200 μL volume) in the presence or absence of test substances and plates incubated at 37°C, 5% CO2 for 72 h. After adding Alamar Blue™ during the last 3 h of incubation, cell viability was measured fluorometrically as described above.
# [6] = Acute toxicity study (OECD limit test); details: mouse, in vivo; Swiss albino mice, limit test dose 2000 mg/kg, OECD guideline
# Procedure: Acute toxicity study was carried out as described earlier using the limit test dose of 2000 mg/kg according to OECD guideline for testing of chemicals on Swiss albino mice.
# L. major amastigotes = system: L. major amastigotes; design: method as in PMID 26151018; details: in vitro; cited from earlier work
# [7] = L. aethiopica promastigotes, 72 h, mean ± SD, n = 3, read-out: Antipromastigote activity IC50
# [8] = L. aethiopica promastigotes, 72 h, read-out: Antipromastigote activity IC50 (micromolar, in parenthesis) (converted)
# [9] = mean ± SD, n = 3, read-out: Antipromastigote activity IC50
# [10] = read-out: Antipromastigote activity IC50 (micromolar, in parenthesis) (converted)
# [11] = 31°C, mean ± SD, n = 3, read-out: Antiaxenically cultured amastigotes activity IC50
# [12] = read-out: Antiaxenically cultured amastigotes activity IC50 (micromolar, in parenthesis) (converted)
# [13] = 37°C, mean ± SD, n = 3, read-out: Antiaxenically cultured amastigotes activity IC50
# [14] = mean ± SD, n = 3, read-out: Cytotoxic effect in THP-1 LC50
# [15] = read-out: Cytotoxic effect in THP-1 LC50 (micromolar, in parenthesis) (converted)
SMILES,"IC50 [1, 7] [µg/mL]","IC50 [1, 8] [µM]","IC50 [2, 9] [µg/mL]","IC50 [2, 10] [µM]",Selectivity index [3],"IC50 [3, 11] [µg/mL]","IC50 [3, 12] [µM]",Selectivity index [4],"IC50 [4, 13] [µg/mL]","IC50 [4, 12] [µM]","CC50 at 72 h [5, 14] [µg/mL]","CC50 at 72 h [5, 15] [µM]",LD50 [6] [mg/kg],inhibitory concentrations against L. major amastigotes (L. major amastigotes) [µg/mL],"IC50 ([1]; promastigotes and axenic amastigotes of L. aethiopica and L. donovani, read-out: IC50 (range over both stages and both species)) [µM]"
"O=C1c2cccc(O)c2C(=O)c2c(O)cc(CO)cc21 [Aloe-emodin, aloe-emodin]",2.81 ± 0.43,10.4,2.85 ± 0.5,10.6,65.22,2.23 ± 0.33,8.3,52.89,2.75 ± 0.03,10.2,145.4 ± 0.27,539,> 2000,40,
"O=C1c2c(O)cccc2C(C2OC(CO)C(O)C(O)C2O)c2cc(CO)cc(O)c21 (centres unmarked) [Aloin A/B, aloin A/B]",3.94 ± 0.33,9.4,5.06 ± 0.22,12.1,55.11,2.8 ± 1.02,6.7,52.84,2.92 ± 0.15,7,154.3 ± 0.22,369,> 2000,,
"C[C@@H]1[C@H](O)[C@@H](C)/C=C/C=C/C=C/C=C/C=C/C=C/C=C/[C@H](O[C@@H]2O[C@H](C)[C@@H](O)[C@H](N)[C@@H]2O)C[C@@H]2O[C@](O)(C[C@@H](O)C[C@@H](O)[C@H](O)CC[C@@H](O)C[C@@H](O)CC(=O)O[C@H]1C)C[C@H](O)[C@H]2C(=O)O [Amphotericin B, amphotericin B, reference compound]",2.43 ± 0.22,2.6,2.45 ± 0.21,2.7,8.31,1.23 ± 0.41,1.3,6.60,1.55 ± 0.51,1.7,10.2 ± 0.32,11.1,,,1.3 to 2.7
"O=C(O)c1cc(O)c2c(c1)C(=O)c1cccc(O)c1C2=O [Rhein, rhein]",1.91 ± 0.61,6.7,2.07 ± 0.11,7.3,171.98,1.01 ± 0.22,3.6,148.46,1.17 ± 0.42,4.1,173.7 ± 0.11,612,> 2000,,
